In patent US20200030278A1, “PHARMACEUTICAL COMPOSITIONS OF METAP-2 INHIBITORS” (Zafgen, Inc., priority 2017, published 2020):
Like-named read-outs stand apart in the source and are kept apart here.

Columns and labels:
Solubility (pH 7) = assay type: physicochemical; settings: pH 7, aqueous buffer
[1] = Pharmacokinetics after intravenous administration in rats; settings: in vivo, Rat, IV Bolus, 1 mg/kg
Procedure: (§1) Animal experiments were performed in accordance with the Guide for the Care and Use of Laboratory Animals as adopted and promulgated by the U.S. National Institutes of Health or local equivalent and were approved by the Institution's Animal Care and Use Committee or local equivalent. Unless described otherwise, animals (mouse, rat, and dog studies) were maintained under standard conditions (12-hour light/dark cycle and approximately 21±4° C. and 55±15% relative humidity), and food (Rodent pellet chow [Research Diets, Brunswick N.J., or similar] or canine pellet [Certified Dog Diet 2021C, Harlan Teklad Diets, Madison, Wis.] or canned [i.e., Cesar® Mars Petcare, Victoria, Australia]) and water were available ad libitum. Unless described otherwise, drug formulations were administered s.c. daily (efficacy studies) or every 3 days (Q3D; safety studies).

[2] = Hepatocyte incubation, metabolic profile, human; assay type: in vitro ADME
[3] = pKa (physicochemical properties)
[4] = Duration of plasma exposure after subcutaneous dosing, summary over species; assay type: in vivo, rat, dog, rabbit, human
[5] = Pharmacokinetics after subcutaneous administration in rabbits; assay type: in vivo, Rabbit
Source text: (§2) Assessment of differences in pharmacokinetics following subcutaneous administration reflect both differences in the pharmacokinetic properties of the compounds and differences in pharmaceutical factors that affect absorption of the formulations from the injection sites.

[6] = Pharmacokinetics after subcutaneous administration in rats; assay type: in vivo; settings: plasma; Rat, SC, 6 mg/kg
Procedure: as §1, §2

[7] = Pharmacokinetics after subcutaneous administration in dogs; assay type: in vivo; settings: plasma; Dog, SC, 1 mg/kg
Procedure: as §1, §2

[8] = Protein binding in mouse plasma (dialysis); assay type: in vitro ADME; settings: read-out: % Bound (converted)
[9] = Pharmacokinetics after intravenous administration in dogs; settings: in vivo, Dog, IV Bolus, 1 mg/kg
Procedure: as §1

[10] = Pharmacokinetics after subcutaneous administration in humans; assay type: in vivo, Human
Source text: as §2

[11] = Hepatocyte incubation, metabolic profile, dog; assay type: in vitro ADME
[12] = Toxicology study in the rat, s.c. Q3D for 28 days; assay type: in vivo, Sprague Dawley rats; settings: for NOAEL at 28 days / AUC(0-t) / Cmax: Sprague Dawley; for AUC(0-t) / Cmax: 6 mg/kg, NOAEL 6 mg/kg; for AUC(0-t): read-out: AUC0-t at NOAEL
Procedure: Male and female Sprague Dawley rats 9-10 weeks of age (Envigo RMS, Inc., Indianapolis, Ind. or Orient Bio Inc., Gyeonggi-do, South Korea) were individually housed at the testing facility. […] Animals were allocated to treatment groups based on body weight, and body weight and food consumption were recorded weekly. […] At necropsy, macroscopic pathologic findings were recorded, sperm motility and morphology were determined, selected organs were weighed, and selected tissues were collected for microscopic examination.

[13] = Hepatocyte incubation, metabolic profile, rat; assay type: in vitro ADME
[14] = Protein binding in human plasma (dialysis); assay type: in vitro ADME; settings: Human Plasma, read-out: % Bound (converted)
plasma proteins [15] = experiment: Protein binding in human plasma (dialysis); assay type: in vitro ADME; settings: plasma; human, summary over concentrations; read-out: bound to plasma proteins
[16] = Protein binding in rat plasma (dialysis); assay type: in vitro ADME; settings: Rat Plasma, read-out: % Bound (converted)
plasma proteins [17] = experiment: Protein binding in rat plasma (dialysis); assay type: in vitro ADME; settings: plasma; rat, summary over concentrations; read-out: bound to plasma proteins
[18] = Pharmacokinetic study in dogs, single s.c. injection (Example 3); settings: both, beagle, dog, plasma, sc, 0.6 mg/kg
Procedure: Male and female beagle dogs of 9 to 11 months of age for PK characterization were individually housed at the testing facility Approximately 325 g of pelleted food was provided daily. […] Animals were observed twice daily for signs of ill health, morbidity, mortality, injury, and viability, and detailed clinical observations were conducted daily (including urine/fecal examination and hands-on examination). Food was weighed daily, and body weights were recorded at least weekly.
Samples were collected in tubes containing lithium heparin and processed for plasma by centrifugation (10 minutes at 3000 rpm). Supernatant was removed and stored frozen (−70° C.) until processed (BASi, West Lafayette, Ind.). Plasma drug concentration data were used to calculate PK parameters for individual concentration data using noncompartmental PK methods in Watson™ version 7.3.0.01 (Thermo Fisher Scientific, Inc., Waltham, Mass.).

[19] = Protein binding in dog plasma (dialysis); assay type: in vitro ADME; settings: Dog Plasma, read-out: % Bound (converted)
plasma proteins [20] = experiment: Protein binding in dog plasma (dialysis); assay type: in vitro ADME; settings: plasma; dog, summary over concentrations; read-out: bound to plasma proteins
[21] = logD7.4 (physicochemical properties); settings: pH 7.4
[22] = female, rat, in vivo, sc, Day 1, female rats
[23] = female, rat, in vivo, sc, Day 28, female rats
[24] = male, rat, in vivo, sc, Day 28, male rats

## CO[C@@H]1[C@H](OC(=O)N2CC(CCN3CCOCC3)C2)CC[C@]2(CO2)[C@H]1[C@@]1(C)O[C@@H]1CC=C(C)C [Compound A]
Solubility (pH 7)
  solubility: > 100 mg/mL
[1]; kel and dependent parameters estimated using two time points
  clearance: 252 mL/min/kg
[1]; kel and dependent parameters estimated using two time points (1 and 2 hours)
  half-life: 93 ± 62.4 min
[1]; kel and dependent parameters estimated using two time points, read-out: Vdss
  Vd: 2.11 ± 0.1 L/kg
[2]
  metabolic profile / predominant pathway in hepatocytes: oxidative (CYP-mediated) metabolism being predominant
[3]
  pKa: 7.17
[4]; all species
  time for concentrations in plasma to return to baseline: ≤ 8 h
[4]; dosing once every 3 days in animals and twice a week in humans
  interval between doses with plasma concentrations at background / minimal exposure: approximately 54 hours
[5]; plasma, Rabbit, SC, 1 mg/kg
  AUC(0-t): 207 ± 45 ng·h/mL
  Cmax: 173 ± 34 ng/mL
  Tmax: 19.8 ± 8.4 min
  half-life: 36.9 ± 10.1 min
[5]; rabbit, subcutaneous, last sampling time 8 hours
  time after dosing at which plasma concentrations were below the lower limit of quantification: ≤ 4 h
[6]
  AUC(0-t): 391 ± 54 ng·h/mL
  Cmax: 323 ± 26 ng/mL
  Tmax: 17.5 ± 5.04 min
[7]
  AUC(0-t): 348 ± 42 ng·h/mL
  Cmax: 122 ± 29 ng/mL
  Tmax: 55 ± 10 min
  half-life: 62.4 ± 18 min
[8]; intended 5 nM, actual 5.20 nM at end of 4-hour dialysis
  fraction unbound at 4 h, 5 nM: 0.298
[8]; intended 10 nM, actual 11.1 nM
  fraction unbound at 4 h, 10 nM: 0.293
[8]; intended 50 nM, actual 56.4 nM
  fraction unbound at 4 h, 50 nM: 0.302
[8]; intended 100 nM, actual 112 nM
  fraction unbound at 4 h, 100 nM: 0.333
[8]; intended 500 nM, actual 496 nM
  fraction unbound at 4 h, 500 nM: 0.377
[8]; intended 1000 nM, actual 868 nM
  fraction unbound at 4 h, 1000 nM: 0.46
[9]
  clearance: 45.3 mL/min/kg
  half-life: 39.7 ± 6.06 min
[9]; read-out: Vdss
  Vd: 1.48 ± 0.17 L/kg
[10]; Human, SC, 2.4 mg
  Cmax: 13.5 ± 2.7 ng/mL
  Tmax: 15 ± 0 min
  kel: 1.09 ± 0.34 h⁻¹
[10]; Human, SC, 2.4 mg, estimated from subcutaneous dosing
  Vdss: 3.78 ± 1.54 L/kg
[10]; humans, 2.4 mg subcutaneous dose
  plasma concentration at 8 hours after dosing: not quantifiable
[10]; plasma, Human, SC, 2.4 mg
  AUC(0-inf): 8.05 ± 1.42 ng·h/mL
  half-life: 40.9 ± 11.9 min
[11]
  metabolic profile / predominant pathway in hepatocytes: oxidative (CYP-mediated) metabolism being predominant
[12]; rat, in vivo, sc, female rats, s.c. Q3D, 4 weeks, read-out: NOAEL (F)
  NOAEL at 28 days: 6 mg/kg
[12]; rat, in vivo, sc, male rats, s.c. Q3D, 4 weeks, read-out: NOAEL
  NOAEL at 28 days: 6 mg/kg
[12]; both sexes, rat, in vivo, sc, Day 1, male rats
  AUC(0-t): 349 ng·h/mL
[12]; [22]
  Cmax: 278 ng/mL
  AUC(0-t): 262 ng·h/mL
[12]; [23]
  Cmax: 412 ng/mL
  AUC(0-t): 288 ng·h/mL
[12]; male, rat, in vivo, sc, Day 1, male rats
  Cmax: 351 ng/mL
[12]; [24]
  Cmax: 426 ng/mL
  AUC(0-t): 409 ng·h/mL
[12]; rat, in vivo, sc, 25 mg/kg
  tolerability of the highest dose: well tolerated
[12]; rats, s.c. Q3D, 4 weeks
  Mortality/early euthanasia: no mortality and None
[13]
  metabolic profile / predominant pathway in hepatocytes: higher amount of GSH-metabolism than for dog and human hepatocytes
[14]; intended 5 nM, actual 1.49 nM at end of 4-hour dialysis
  fraction unbound at 4 h, 5 nM: 0.664
[14]; intended 10 nM, actual 3.14 nM
  fraction unbound at 4 h, 10 nM: 0.681
[14]; intended 50 nM, actual 15.5 nM
  fraction unbound at 4 h, 50 nM: 0.688
[14]; intended 100 nM, actual 32.7 nM
  fraction unbound at 4 h, 100 nM: 0.694
[14]; intended 500 nM, actual 165 nM
  fraction unbound at 4 h, 500 nM: 0.704
[14]; intended 1000 nM, actual 338 nM
  fraction unbound at 4 h, 1000 nM: 0.748
Plasma proteins [15]
  fraction unbound: 0.65 to 0.75
[16]; intended 5 nM, actual 3.64 nM at end of 4-hour dialysis
  fraction unbound at 4 h, 5 nM: 0.323
[16]; intended 10 nM, actual 7.60 nM
  fraction unbound at 4 h, 10 nM: 0.29
[16]; intended 50 nM, actual 39.7 nM
  fraction unbound at 4 h, 50 nM: 0.426
[16]; intended 100 nM, actual 76.0 nM
  fraction unbound at 4 h, 100 nM: 0.466
[16]; intended 500 nM, actual 370 nM
  fraction unbound at 4 h, 500 nM: 0.451
[16]; intended 1000 nM, actual 595 nM
  fraction unbound at 4 h, 1000 nM: 0.566
Plasma proteins [17]
  fraction unbound at 4 h: 0.3 to 0.6
[18]
  half-life: 24 min
[19]; intended 5 nM, actual 3.17 nM at end of 4-hour dialysis
  fraction unbound at 4 h, 5 nM: 0.311
[19]; intended 10 nM, actual 6.05 nM
  fraction unbound at 4 h, 10 nM: 0.406
[19]; intended 50 nM, actual 32.0 nM
  fraction unbound at 4 h, 50 nM: 0.326
[19]; intended 100 nM, actual 59.1 nM
  fraction unbound at 4 h, 100 nM: 0.403
[19]; intended 500 nM, actual 320 nM
  fraction unbound at 4 h, 500 nM: 0.457
[19]; intended 1000 nM, actual 527 nM
  fraction unbound at 4 h, 1000 nM: 0.469
Plasma proteins [20]
  fraction unbound at 4 h: 0.3 to 0.6
[21]
  logD7.4: 2.28
